Data on 13 compounds can be found in patent US7897789B2, “Vitamin D receptor modulators” (Eli Lilly and Company, priority 2003, dated 2011).

“And” between values parts separate entries of the source, which are not always exact repeats. Equal entries are not always repeated. Where two headings read alike, the source gives them in different places.

Data set [1] deals with DBF mice. The experiment in a line: Mouse hypercalcemia assay. The note with it: oral gavage for 6 days.
Source text: The Mouse Hypercalcemia Assay
The Mouse Hypercalcemia Assay is a six day hypercalcemia test for toxicity and selectivity.
(4) Materials and Method for the Mouse Hypercalcemia Assay:
Weanling, virus-antibody-free, five to six weeks old female DBF mice (Harlan, Indianapolis, Ind.) are used for all the studies. Animals are allowed to acclimate to local vivarium conditions for 2 days. […] The animals then are divided into groups with 4-5 mice per group. Different doses of test compounds prepared in 10% Ethanol and 90% sesame oil are administered to mice orally via gavage for 6 days. 1α-25(OH)2D3 0.5 μg/kg/d was also given to one group of mice as the positive control. […] Raw data of group differences is assessed by analysis of variance (ANOVA) using Fisher's protected least significant difference (PLSD) where the significance level was P<0.05.
Data set [2] relates to KERtr cells. As to the kind of experiment: Keratinocyte proliferation assay. The format is cell-based. The note with it: Homo sapiens. The protocol:
5. The Keratinocyte Proliferation Assay
This Assay is indicative for the treatment of psoriasis.
(5) The Keratinocyte Proliferation Assay:
KERtr cells (Human skin keratinocyte transformed with a retrovirus vector, obtained from ATCC) were plated in 96-well flat-bottomed plates (3000 cells/well) in 100 μl keratinocyte serum free medium supplemented with bovine pituitary extract in the absence of EGF (Life Technologies, Rockville, Md.) and incubated at 37° C. for two days. The cells were treated with various concentrations of VDR ligands (ten-fold serial dilution from 10,000 nM to 0.1 nM in triplicate), dissolved in 100 μl keratinocyte serum free medium supplemented with bovine pituitary extract in the absence of EGF and incubated at 37° C. for 72 hr. […] Potency values (IC50) values were determined as the concentration (nM) of compound that elicited a half-maximal response.

Data set [3] relates to rat osteocalcin promoter. As to the kind of experiment: OCN (osteocalcin) promoter assay. The format is cell-based. Particulars: RG-15 (ROS 17/2.8) cells. Here is the method: 3. The OCN (Osteocalcin) Promoter Assay
The OCN Promoter Assay is an indicator and marker for osteoporosis. […] Preferred assay results are less than 50 nM.
(3) Materials and Method for the OCN Promoter Assay:
The activation of osteocalcin by VDR ligands was evaluated in a rat osteoblast-like cell line RG-15 (ROS 17/2.8) stably expressing rat osteocalcin promoter fused with luciferase reporter gene. […] Confluent RG-15 cells maintained in DMEM/F-12 medium (3:1) containing 5% FBS, 300 μg/ml G418 and at 37° C. under 5% CO2/95% air atmosphere were trypsinized (0.25% trypsin) and plated into white opaque 96-well cell culture plates (25000 cells/well). After 24 hr, cells (in DMEM/F-12 medium+2% FBS) were treated with various concentrations of compounds, dissolved in DMSO. The final DMSO concentration remained at 0.01% (v/v). After 48 hr treatment, the medium was removed, cells were lysed with 50 μl of lysis buffer (From Luciferase reporter assay system, Roche Diagnostics, Indianapolis, Ind.) and assayed for luciferase activity using the Luciferase Reporter Gene Assay kit from Boehringer Mannheim as per manufacturer's specifications.

Data set [4] concerns the target T1, VDR (Homo sapiens, UniProt P11473).
T1 construct: the receptor expression vector pGal4-VDR-LBD (10 ng); expressed in transfected cells; host or cells: Caco-2 cells
T1 sequence (P11473 127-423 limits assumed): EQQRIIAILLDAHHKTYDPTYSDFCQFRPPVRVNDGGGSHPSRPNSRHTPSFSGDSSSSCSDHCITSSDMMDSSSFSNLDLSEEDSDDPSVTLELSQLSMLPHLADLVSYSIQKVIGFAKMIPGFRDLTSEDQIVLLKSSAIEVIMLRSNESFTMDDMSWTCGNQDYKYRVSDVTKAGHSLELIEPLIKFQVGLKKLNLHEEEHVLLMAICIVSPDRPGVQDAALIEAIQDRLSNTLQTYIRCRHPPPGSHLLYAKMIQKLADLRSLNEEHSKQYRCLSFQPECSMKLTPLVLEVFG
The experiment in a line: Caco-2 cell co-transfection assay (VDR CTF). The format is cell-based. Particulars: Caco-2 cells, pGal4-VDR-LBD luciferase co-transfection; Table 1. Here is the method: 2. The Caco-2 Cell Co-Transfection Assay:
The Caco-2 cell assay is an indicator for the undesirable condition of hypercalcemia. This co-transfection assay is a surrogate assay for in vivo calcemic activity of VDR ligands. […] Preferred assay results are greater than 1000 nM.
(2) Materials and Method for The Caco-2 Cell Assay:
Caco-2 cells, grown in phenol red free, DMEM (Invitrogen, Carlsbad, Calif.) containing 10% charcoal-stripped FCS (Hyclone, Logan, Utah), were transfected with Fugene 6 reagent (Roche Diagnostics, Indianapolis, Ind.). Cells (5000/well) were plated 18 h before transfection in a 96 well plate. The Cells were transfected with Gal4-responsive reporter pFRLuc (150 ng, Stratagene, La Jolla Calif.) and the receptor expression vector pGal4-VDR-LBD (10 ng), along with Fugene 6 reagent (0.2 μl/well). The DNA-Fugene complex was formed by incubating the mixture for 30 min at room temperature. The cells were transfected in triplicate for 5 h, and treated with various concentrations of VDR ligands (form 0.01 nM to 10,000 nM concentration range) 18 h post-transfection. The luciferase activity was quantified using Steady-Glo reagent kit (Promega, Madison, Wis.) as per manufacturer's specifications.

Data set [5] addresses T2, RXR-VDR heterodimer (Homo sapiens, UniProt P11473).
T2 construct: Add the Gal4-RXR-DEF and VP16-VDR-LBD; expressed in transfected cells; host or cells: SaOS-2 cells
T2 sequence (P11473 127-423 limits assumed): T1 sequence (P11473 127-423 limits assumed)
T2 sequence (P19793 201-462 partner limits assumed): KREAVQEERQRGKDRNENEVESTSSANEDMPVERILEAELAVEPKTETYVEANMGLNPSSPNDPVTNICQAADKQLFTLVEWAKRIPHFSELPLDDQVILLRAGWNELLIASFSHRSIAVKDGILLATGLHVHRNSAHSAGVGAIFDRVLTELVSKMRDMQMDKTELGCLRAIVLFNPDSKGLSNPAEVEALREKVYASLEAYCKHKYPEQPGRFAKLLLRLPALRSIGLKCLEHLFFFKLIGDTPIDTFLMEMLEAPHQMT
As to the kind of experiment: RXR-VDR heterodimerization assay (SaOS-2 cells). The format is cell-based. Particulars: Gal4-RXR / VP16-VDR-LBD luciferase reporter, Table 1. The protocol:
1. The RXR-VDR HeterodimerAssay:
This assay provides the VDR activity of a test compound.
(1) Materials and Method for RXR-VDR Heterodimerization Assay:
Luciferase Assay Reagent: • Use Steady-Glo Luciferase Reagent from Promega (Cat #E2550) Consists of: a. E2533 Assay Substrate, lyopholized product and b. E2543 Assay Buffer. • Thaw at room temperature • Store Cell Harvesting Aspirate media from culture flask, rinse cells with HBSS and aspirate. Add trypsin and incubate. When cells appear detached, resuspend cells in growth media. Transfer into a new flask with fresh growth media for passaging the cells. Plate well plates and two extra plates A. Cell Count Mix the cell suspension using pipette Use Hematocytometer to count the cells Load cell suspension onto the hemocytometer chamber Count cells. […] In sterile flask add cell suspension to plating media. Mix. Add cells/well. Place the cells in the incubator. Cells should be about 75% confluent prior to transfection. DAY 2: Transfection Step 1: DNA and Media Add plain DMEM media to tubes for mixing the DNA Add the Reporter gene pFR-LUC Add the Gal4-RXR-DEF and VP16-VDR-LBD Step 2: FuGENE and Media Prepare plain DMEM media in a ubes for mixing FuGENE Add FuGENE 6 Transfection Reagent Incubate Step 3: FuGENE, DNA and Media Complex Add FuGENE Media complex from step 2 to DNA Media complex from step 1 Incubate Step 4: FuGENE, DNA and Media Complex to-well plate Add FuGENE-DNA-Media complex from step 3 to each plate Incubate. […] Day 4: Luciferase Assay Read the plates after drug treatment Remove part of media from all the wells and leave remainder Add Steady-Glo Luciferase Reagent mixture/wells Incubate Count each well using a Luminescence counter, Top Count NXT by Packard
Set a delay between plates to reduce the background.
(In general: A reporter such as luciferase makes a cellular process visible.)

Where [6] appears, read: comparison compounds, Table 4, read-out: Kera. Prolif. IC50.
Setting [7] is: Rattus norvegicus, comparison compounds, Table 3.
The mark [8] stands for this setting: 72 h, BrdU incorporation, Table 2, read-out: Kera. Prolif. IC50.
The mark [9] stands for this setting: Rattus norvegicus, 48 h, 48 hr treatment, Table 1.

Usually IC50 stands for the concentration that inhibits the measured activity by half. By EC50 is commonly meant the midpoint of the concentration-response curve.

For `CCC(CC)(c1ccc(OCC(O)CO)c(C)c1)c1ccc(OCC(O)C(C)(C)C)c(C)c1` (stereo not shown) [BB, 3-(4-{1-Ethyl-1-[4-(2-hydroxy-3,3-dimethyl-butoxy)-3-methyl-phenyl]-propyl}-2-methyl-phenoxy)-propane-1,2-diol, reference compound], the “Mouse Hypercal” value in data set [1] (comparison compounds, Table 3) was 20 µg/kg/day. For the same compound, the half-maximal inhibitory concentration (IC50) in data set [2] (setting [6]) is 10 nM. Also, the EC50 in data set [3] (setting [7]) amounted to 8.24 nM.
For `CCC(CC)(c1ccc(OCC(=O)C(C)(C)C)c(C)c1)c1ccc(OCC(=O)C(C)(C)C)c(C)c1` [DD, reference compound], in data set [1] (comparison compounds, Table 3), the “Mouse Hypercal” value is 1000 µg/kg/day. In addition, in data set [2] (setting [6]), the IC50 is 1060 nM. Besides, the EC50 in data set [3] (setting [7]) amounted to 31.1 nM.
In the case of `CCC(CC)(c1ccc(OCC(=O)C(C)(C)C)c(C)c1)c1ccc(OC[C@H](O)C(C)(C)C)c(C)c1` [EE, reference compound], in data set [1] (comparison compounds, Table 3), the “Mouse Hypercal” value is 1000 µg/kg/day. Also, in data set [3] (setting [7]), the EC50 is 341 nM.
As to `CCC(CC)(c1ccc(OCC(=O)C(C)(C)C)c(C)c1)c1cc2ccc(C(=O)O)cc2s1` [Ex 7, 2-{1-[4-(3,3-dimethyl-2-oxo-butoxy)-3-methyl-phenyl]-1-ethyl-propyl}-benzo[b]thiophene-6-carboxylic acid], the “Mouse Hypercal” value in data set [1] (serum ionized calcium 6 hours after last dosing, Table 1) was above 300 µg/kg/day. For the same compound, the EC50 in data set [4] worked out at 791 nM; in data set [3] (setting [9]), 1 nM. Besides, in data set [2] (setting [8]), the IC50 is 1000 nM.
With `CCC(CC)(c1ccc(OCC(O)C(C)(C)C)c(C)c1)c1ccc2sc(C(=O)O)cc2c1` (stereo not shown) [Ex 14, 5-{1-ethyl-1-[4-(2-hydroxy-3,3-dimethyl-butoxy)-3-methyl-phenyl]-propyl}-benzo[b]thiophene-2-carboxylic acid], the EC50 in data set [4] was determined as 941 nM; in data set [3] (setting [9]), 6 nM.
As for `CCC(CC)(c1ccc(OCC(O)C(C)(C)C)c(C)c1)c1ccc2sc(C(=O)NCC(=O)O)cc2c1` (stereo not shown) [Ex 16, [(5-{1-ethyl-1-[4-(2-hydroxy-3,3-dimethyl-butoxy)-3-methyl-phenyl]-propyl}-benzo[b]thiophene-2-carbonyl)-amino]-acetic acid], the EC50 in data set [5] is 254 nM and 108 nM; in data set [4], 938 nM. For the same compound, in data set [2] (setting [8]), the concentration for half-maximal inhibition (IC50) was found to be 384 nM.
Regarding `CCC(O)(CC)COc1ccc(C(CC)(CC)c2cc3ccc(C(=O)O)cc3s2)cc1C` [Ex 22, 2-{1-Ethyl-1-[4-(2-ethyl-2-hydroxy-butoxy)-3-methyl-phenyl]-propyl}benzo[b]thiophene-6-carboxylic acid], the half-maximal effective concentration (EC50) in data set [5] was 458 nM and 139 nM; in data set [4], 1060 nM. Moreover, the IC50 in data set [2] (setting [8]) is 154 nM.
As to `CCOC(=O)c1cc2cc(C(CC)(CC)c3ccc(OCC4(C(C)(C)C)OCCO4)c(C)c3)ccc2s1` [Ex 23, 5-{1-[4-(2-tert-Butyl-[1,3]dioxolan-2-ylmethoxy)-3-methyl-phenyl]-1-ethyl-propyl}-benzo[b]thiophene-2-carboxylic acid ethyl ester], the 50% effective concentration (EC50) in data set [3] (setting [9]) turned out to be 161 nM.
On to `CCC(CC)(c1ccc(OCC(=O)C(C)(C)C)c(C)c1)c1cc2cc(OS(C)(=O)=O)ccc2s1` [Ex 24, methanesulfonic acid 2-{1-[4-(3,3-dimethyl-2-oxo-butoxy)-3-methyl-phenyl]-1-ethyl-propyl}-benzo[b]thiophen-5-yl ester], for which the EC50 in data set [5] was 695 nM; in data set [3] (setting [9]) it was 215 nM. Further, in data set [2] (setting [8]), the IC50 is 232 nM.
In the case of `CCC(CC)(c1ccc(OCC(O)C(C)(C)C)c(C)c1)c1ccc2cc(C(=O)N(C)C)sc2c1` (stereo not shown) [Ex. 4, 6-{1-ethyl-1-[4-(2-hydroxy-3,3-dimethyl-butoxy)-3-methyl-phenyl]-propyl}-benzo[b]thiophene-2-carboxylic acid dimethylamide], the EC50 in data set [4] was determined as 555 nM; in data set [3] (48 hr treatment, Table 1), 15 nM; in data set [3] (setting [9]) it was 20 nM.
Regarding `CCC(CC)(c1ccc(OCC(=O)C(C)(C)C)c(C)c1)c1cc2ccc(C(=O)N(C)C)cc2s1` [Ex. 9, 2-{1-[4-(3,3-Dimethyl-2-oxo-butoxy)-3-methyl-phenyl]-1-ethyl-propyl}-benzo[b]thiophene-6-carboxylic acid dimethylamide], the EC50 in data set [4] is 1270 nM; in data set [3] (48 hr treatment, Table 1), 35 nM; in data set [3] (setting [9]), 41 nM. Besides, the IC50 in data set [2] (setting [8]) came out at 1000 nM.
`CCC(CC)(c1ccc(OCC(O)C(C)(C)C)c(C)c1)c1cc2ccc(C(=O)N(C)C)cc2s1` (stereo not shown) [Ex. 10, 2-{1-Ethyl-1-[4-(2-hydroxy-3,3-dimethyl-butoxy)-3-methyl-phenyl]-propyl}-benzo[b]thiophene-6-carboxylic acid dimethylamide]: the EC50 in data set [5] was 323 nM; in data set [4], 690 nM; in data set [3] (48 hr treatment, Table 1), 18 nM; in data set [3] (setting [9]), 24 nM. Moreover, in data set [2] (setting [8]), the IC50 was 573 nM.
Turning to `CCC(CC)(c1ccc(OCC(O)C(C)(C)C)c(C)c1)c1cc2ccc(C(=O)NCC(=O)O)cc2s1` (stereo not shown) [Ex. 12, [(2-{1-Ethyl-1-[4-(2-hydroxy-3,3-dimethyl-butoxy)-3-methyl-phenyl]-propyl}-benzo[b]thiophene-6-carbonyl)-amino]-acetic acid], the EC50 in data set [5] was 19 nM and 2 nM; in data set [4] it was 137 nM; in data set [3] (setting [9]) it was 0.3 nM. In addition, the IC50 in data set [2] (setting [8]) came out at 1 nM.
